# Source: patent US12642809B2, “Fucosylation and immune modulation in cancer” (H. LEE MOFFITT CANCER CENTER AND RESEARCH INSTITUTE, INC., priority 2019, dated 2026)
# Key:
# [1] = system: cell surface fucosylation; test: Flow cytometry of cell surface fucosylation (AAL lectin) in melanoma cells; type: cell-based, human; conditions: 250 μM, 72 h, panel of melanoma cell lines
# Experimental: Indicated cells were treated for 72 h with DMSO, 250 μM fucosyltransferase inhibitor (FUTi) (Millipore Sigma (St. Louis, MO)), or 250 μM of L-fucose (Biosynth (Oak Terrace, IL)). After 72 h, cells were stained with 0.1 μM PKH26 (Millipore Sigma (St. Louis, MO)) prior to fixation in 4% formaldehyde solution. The cells were stained with anti-HLA-DRB1 (rabbit anti-human HLA-DRB1 (0.2 μg/mL, ab92371, Abcam (Cambridge, UK)) and fluorescein AAL (0.2 μg/ml. Vector Labs (Burlingame, CA)), or anti-human or anti-mouse PD-L1 (Novus Biologicals (Centennial, CO) or Biolegend (San Diego, CA), respectively) overnight. The following day the cells were washed 3 times prior to adding AlexaFluor 594 donkey anti-rabbit (0.8 μg/mL, ThermoFisher Scientific (Waltham, MA)). Cells were washed 3 times and then subject to flow cytometric analyses using a FACSCalibur™ (BD Biosciences (San Jose, CA)). Samples were analyzed using FlowJo™ analysis software (BD Biosciences (San Jose, CA)). Median values of DRB1 and AAL were normalized to PKH26 values and statistical analysis was performed using GraphPad Prism™.
# [2] = system: SW1 tumors; test: CD4+/CD8+ T cell immunodepletion, SW1 model; type: in vivo, mouse
# Experimental: Single-cell suspensions from tumor and spleen tissue were stained with Live/Dead Zombie NIR (Biolegend, (San Diego, CA)) at 1:1,000 in PBS for 20 min. Cell suspensions were spun down and stained with the following antibodies: APC anti-mouse CD3 (0.5 μg/mL, BD Biosciences (San Jose, CA)), Pacific Blue anti-mouse CD4 ([…], BD Biosciences (San Jose, CA)), BV785 anti-mouse CD8 (0.5 μg/mL, BD Biosciences (San Jose, CA)), PerCP anti-mouse CD25 ([…], BD Biosciences (San Jose, CA)), FITC anti-mouse F4/80 (0.5 μg/mL, BD Biosciences (San Jose, CA)), PeCy7 anti-mouse CD11c (0.5 μg/mL, BD Biosciences (San Jose, CA)), PE anti-mouse NK1.1 (0.5 μg/mL, BD Biosciences (San Jose, CA)), PE anti-mouse DX5 (0.5 μg/mL, BD Biosciences (San Jose, CA)), PerCP-Cy5.5 anti-mouse CD11b (0.5 μg/mL, BD Biosciences (San Jose, CA)). After staining, the cells were washed and fixed (2% formaldehyde), followed by another wash and flow cytometric analysis. The compensation controls were prepared using 0.5 μg/ml. of each antibody with beads UltraComp eBeads™, (ThermoFisher Scientific (Waltham, MA)). All samples were subject to flow cytometric analysis using a LSR Flow Cytometer (BD Biosciences (San Jose, CA)). Flow cytometric data was further analyzed using FlowJo™ analysis software (BD Biosciences (San Jose, CA)). TIL profiles were determined as a measure of TIL subpopulations per gram of tumor tissues or % of total splenocytes.
# Three days prior to tumor engraftment, PBS (control) or ˜300 μg α-CD4 (20 mg/kg, for immunodepletion, GK1.5, Bioxcell (West Lebanon, NH)) or α-CD8 (20 mg/kg, for immunodepletion, 2.43, Bioxcell (West Lebanon, NH)) was administered by intraperitoneal injection into the indicated cohorts of mice. Injections of immunodepletion antibody or PBS were continued every 3-4 days until endpoint. Syngeneic recipient C3H/HeN female or C57BL/6 male mice were injected with SW1 or SMI cells, respectively. After approximately 7 days, when the tumors reached ˜150 mm^3, the mice were either supplemented with or without 100 mM L-fucose (Biosynth (Oak Terrace, IL)) via drinking water, which was provided ad libitum. When the tumors reached ˜2 cm^3, the animals were sacrificed, and the tumors were either processed for flow cytometric profiling or for histological analysis as indicated.
smiles,measurement,setting,value
C[C@H](O)[C@@H](O)[C@@H](O)[C@H](O)C=O [L-fucose],cell surface fucosylation relative to DMSO,[1],increased
same,L-fuc-induced tumor suppression and increase in total TILs,[2]; CD4+ T cell-depleted mice,abrogated tumor suppression
same,"increases in intratumoral NK, DC and CD8+ T cells",[2]; CD4+ T cell-depleted mice,completely blunted
same,L-fuc-induced tumor suppression and increase in total TILs,"[2]; CD4+ T cell-depleted mice, listed as L-fuc",completely abrogated
same,reduced tumor growth,[2]; CD8+ T cell-depleted mice,~50%
same,reduced tumor growth,[2]; control (PBS-injected) mice,~60%
same,increase in intratumoral CD8+ T cells,[2]; control mice,~10 fold
same,increase in intratumoral DC,[2]; control mice,~10 fold
same,increase in intratumoral NK cells,[2]; control mice,~3 fold
